In US11667651B2, “Aminopyridine derivatives as phosphatidylinositol phosphate kinase inhibitors” (HiberCell, Inc., priority 2017, dated 2023) one finds IC50 data, which are given here for 16 molecules.

One test has as its target T1, PIP4K2B (Homo sapiens, UniProt P78356).
T1 construct: made in house; host or cells: E. coli
T1 sequence (P78356 1-416): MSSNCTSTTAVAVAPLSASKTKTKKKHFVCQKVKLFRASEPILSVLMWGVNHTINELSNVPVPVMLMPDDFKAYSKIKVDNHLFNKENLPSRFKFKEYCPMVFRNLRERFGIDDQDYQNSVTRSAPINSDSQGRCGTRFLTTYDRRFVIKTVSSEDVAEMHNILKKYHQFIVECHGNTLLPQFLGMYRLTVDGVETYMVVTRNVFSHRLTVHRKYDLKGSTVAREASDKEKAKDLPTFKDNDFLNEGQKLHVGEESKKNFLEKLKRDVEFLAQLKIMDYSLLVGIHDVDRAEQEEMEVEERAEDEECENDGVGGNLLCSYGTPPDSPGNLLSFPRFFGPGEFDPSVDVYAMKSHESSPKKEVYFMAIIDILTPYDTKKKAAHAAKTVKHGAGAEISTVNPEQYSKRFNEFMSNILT
In words: Trans-FI P kinase assay PIP4K2B (Table 4). The test is classed as biochemical. Particulars: compounds listed under IC50 bins; read-out: Trans-FI P kinase assays: PIP4K2B IC50. From the text:
GST tagged PIP4KtypeIIA and B enzymes were overexpressed in E. Coli and purified to >80% homogeneity. Phosphatidyl inositol-5-phosphate (PI5P, Cat. #850152, Avanti Polar Lipids Inc.) was used as the lipid substrate and phosphatidyl ethanolamine (DOPE 18:1, Cat. #850725, Avanti Polar Lipids Inc.) was used as the carrier lipid for assays. Ultrapure ATP and GTP was purchased from Bellbrooke Labs. ADP Glo reagents were obtained from Promega. Transcreener FI reagent was obtained from Bellbrooke labs.
GST-tagged PIP4KtypeIIB (3.4 μL, 2.77 mg/mL) was diluted to 5 mL using HNE buffer to yield 5× enzyme stock (25 nM)
Lipid Preparation: In a 10 mL pyrex glass vial, […] were suspended in 2.5 mL of HEPES buffer mix and 2.5 mL of H:E buffer. The contents were mixed and sonicated for 3 min to yield a translucent lipid stock.
Compound Preparation: Compounds were stored as 5 mM stocks in neat DMSO as room temperature in glass vials. 5 mM stocks were diluted to 2 mM and then serially diluted (3×) in neat DMSO in 96 well polypropylene plates. From the serially diluted stocks, 3 μL was delivered into 250 μL of 25% DMSO (in water) to generate 5× compound stocks. Typically, the highest compound conc. was 24 μM.
The assay volume was kept at 25 μL. To each well of the reaction plate, 10 μL of lipid stock (1:1 ratio PI5P:DOPE) was delivered. This was followed by the addition of 5 μL of compound in 25% DMSO. Then, to each well, 5 μL of 25 nM (5×) typeIIB enzyme was delivered. The contents were mixed well and incubated for 1 h at 27° C. After 1 h, reaction was initiated by adding 5 μL of 500 μM GTP and the contents were mixed well with a multi-channel pipetteman. The final concentration of the reagents are as follows: 50 mM HEPES, pH 7.3, 10 mM MgCl2, 20 mM NaCl, 0.01% v/v triton-X100, 5% DMSO, 100 μM GTP, 80 μM (2 μg) PI5P, 2 μg DOPE, and 5 nM PIP4KIIB Typically, the highest conc. of compounds was 4.8 μM and the lowest conc. was 0.
After 2 h, the reaction was quenched by adding 25 μL of transcreener FI reagent. The contents were incubated at rt for 1 h and the Fluorescence (Ex: 584 Em: 623) was read using Molecular Devices Paradigm plate reader. […] The blanks were averaged and subtracted from all other wells. Using a calibration curve, RFU was converted to μM GDP (product). IC50 was calculated by plotting the residual activity (expressed as % No inhibitor control) vs. log [Inh. conc.]

Another test deals with T2, PIP4K2A (Homo sapiens, UniProt P48426).
T2 sequence (P48426 1-406): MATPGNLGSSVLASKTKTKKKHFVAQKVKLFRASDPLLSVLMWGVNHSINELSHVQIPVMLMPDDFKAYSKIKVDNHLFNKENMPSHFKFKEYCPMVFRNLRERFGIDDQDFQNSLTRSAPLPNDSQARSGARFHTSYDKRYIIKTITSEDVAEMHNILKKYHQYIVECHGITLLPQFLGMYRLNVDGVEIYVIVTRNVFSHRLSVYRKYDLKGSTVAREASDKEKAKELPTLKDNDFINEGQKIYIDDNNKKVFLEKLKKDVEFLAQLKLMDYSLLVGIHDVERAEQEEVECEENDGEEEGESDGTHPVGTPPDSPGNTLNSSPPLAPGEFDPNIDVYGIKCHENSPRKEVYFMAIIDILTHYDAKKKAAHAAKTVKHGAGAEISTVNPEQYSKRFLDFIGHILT
In words: Kinase Assay PIP4K2 A (Table 2). The class given is biochemical. The arrangement: 4 nM PIP4K2A (full length protein, SignalChem); purchased SignalChem. The conditions noted are these: compounds listed under IC50 bins. In a few lines: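 ADP-Glo luminescent read-out after 1 h room-temperature kinase reaction, started with 60 μM ATP solution following 15 min compound pre-incubation. Enzyme/substrate mix: 4 nM full-length PIP4K2A plus 100 μM PI(5)P diC8; buffer MOPS pH 7.2 with 25 mM MgCl2 and Tween 20. IC50 from 10-point, 3-fold titrations normalized to DMSO.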

Regarding `Cn1cnnc1N1CCN(c2ccc(Nc3cnc4c(c3)N3C(=O)CC[C@H]3CO4)nc2)CC1` [Example 275, (S)-2-((5-(4-(4-methyl-4H-1,2,4-triazol-3-yl)piperazin-1-yl)pyridin-2-yl)amino)-6,6a,7,8-tetrahydro-9H-pyrido[2,3-b]pyrrolo[1,2-d][1,4]oxazin-9-one], the half-inhibitory concentration (IC50) at PIP4K2B lay in the range of 10 to 100 nM; against PIP4K2A it was 100 to 1000 nM.

With `Cc1ccnnc1-c1ccc(-c2ccc(Nc3cnc4c(c3)N3C(=O)CC[C@H]3CO4)nc2)cc1` [Example 276, (S)-2-((5-(4-(4-methylpyridazin-3-yl)phenyl)pyridin-2-yl)amino)-6,6a,7,8-tetrahydro-9H-pyrido[2,3-b]pyrrolo[1,2-d][1,4]oxazin-9-one], the half-maximal inhibitory concentration (IC50) on PIP4K2B and against PIP4K2A was 1 to 10 nM in each case.

Consider `Cc1cnoc1-c1ccc(-c2ccc(Nc3cnc4c(c3)N3C(=O)CC[C@H]3CO4)nc2)cc1` [Example 277, (S)-2-((5-(4-(4-methylisoxazol-5-yl)phenyl)pyridin-2-yl)amino)-6,6a,7,8-tetrahydro-9H-pyrido[2,3-b]pyrrolo[1,2-d][1,4]oxazin-9-one], for which the IC50 on PIP4K2B fell in the range of 10 to 100 nM; on PIP4K2A, 1 to 10 nM.

For the molecule `Cc1cnnn1-c1ccc(-c2cnc(Nc3cnc4c(c3)N3C(=O)CC[C@H]3CO4)nc2C(C)C)cc1` [Example 278, (S)-2-((4-isopropyl-5-(4-(5-methyl-1H-1,2,3-triazol-1-yl)phenyl)pyrimidin-2-yl)amino)-6,6a,7,8-tetrahydro-9H-pyrido[2,3-b]pyrrolo[1,2-d][1,4]oxazin-9-one], the IC50 is 1 to 10 nM at PIP4K2B and not above 1 nM against PIP4K2A.

As for `CN1CC2(CCN(c3ccc(Nc4cnc5c(c4)N4C(=O)CC[C@H]4CO5)nc3)CC2)OC1=O` [Example 279, (S)-2-((5-(3-methyl-2-oxo-1-oxa-3,8-diazaspiro[4.5]decan-8-yl)pyridin-2-yl)amino)-6,6a,7,8-tetrahydro-9H-pyrido[2,3-b]pyrrolo[1,2-d][1,4]oxazin-9-one], the IC50 at PIP4K2B and at PIP4K2A was more than 1000 nM throughout.

For `O=C1CCCN1c1ccc(-c2cnc(Nc3cnc4c(c3)N3C(=O)CC[C@H]3CO4)nc2N2CCOCC2)cc1` [Example 280, (S)-2-((4-morpholino-5-(4-(2-oxopyrrolidin-1-yl)phenyl)pyrimidin-2-yl)amino)-6,6a,7,8-tetrahydro-9H-pyrido[2,3-b]pyrrolo[1,2-d][1,4]oxazin-9-one], the half-inhibitory concentration (IC50) on PIP4K2B is 1 to 10 nM; against PIP4K2A, not above 1 nM.

For `CN1CCN(c2nc(Nc3cnc4c(c3)N3C(=O)CC[C@H]3CO4)ncc2-c2ccc(N3CCCC3=O)cc2)CC1` [Example 281, (S)-2-((4-(4-methylpiperazin-1-yl)-5-(4-(2-oxopyrrolidin-1-yl)phenyl)pyrimidin-2-yl)amino)-6,6a,7,8-tetrahydro-9H-pyrido[2,3-b]pyrrolo[1,2-d][1,4]oxazin-9-one], the IC50 on PIP4K2B was in the range of 10 to 100 nM; against PIP4K2A, 1 to 10 nM.

With `COCc1cc(Nc2cnc3c(c2)N2C(=O)CC[C@H]2CO3)ncc1-c1ccc(-c2nocc2C)cc1` [Example 282, (S)-2-((4-(methoxymethyl)-5-(4-(4-methylisoxazol-3-yl)phenyl)pyridin-2-yl)amino)-6,6a,7,8-tetrahydro-9H-pyrido[2,3-b]pyrrolo[1,2-d][1,4]oxazin-9-one], the results for the IC50 at PIP4K2B and at PIP4K2A were 10 to 100 nM and 1 to 10 nM, respectively.

As for `Cc1conc1-c1ccc(-c2ccc(Nc3cnc4c(c3)N3C(=O)CC[C@H]3CO4)nc2)cc1` [Example 283, (S)-2-((5-(4-(4-methylisoxazol-3-yl)phenyl)pyridin-2-yl)amino)-6,6a,7,8-tetrahydro-9H-pyrido[2,3-b]pyrrolo[1,2-d][1,4]oxazin-9-one], the IC50 at PIP4K2B is 10 to 100 nM; against PIP4K2A it was 1 to 10 nM.

On to `O=C1CCCN1c1ccc(-c2cnc(Nc3cnc4c(c3)N3C(=O)CC[C@H]3CO4)cc2OC2CCC2)cc1` [Example 284, (S)-2-((4-cyclobutoxy-5-(4-(2-oxopyrrolidin-1-yl)phenyl)pyridin-2-yl)amino)-6,6a,7,8-tetrahydro-9H-pyrido[2,3-b]pyrrolo[1,2-d][1,4]oxazin-9-one], for which the results for the IC50 at PIP4K2B and on PIP4K2A were 1 to 10 nM and not above 1 nM, respectively.

Consider `Cn1cnnc1-c1ccc(-c2cnc(Nc3cnc4c(c3)N3C(=O)CC[C@H]3CO4)cc2C2CC2)cc1` [Example 285, (S)-2-((4-cyclopropyl-5-(4-(4-methyl-4H-1,2,4-triazol-3-yl)phenyl)pyridin-2-yl)amino)-6,6a,7,8-tetrahydro-9H-pyrido[2,3-b]pyrrolo[1,2-d][1,4]oxazin-9-one], for which the IC50 on PIP4K2B and on PIP4K2A was 10 to 100 nM in each case.

Turning to `COC1CN(c2nc(Nc3cnc4c(c3)N3C(=O)CC[C@H]3CO4)ncc2-c2ccc(N3CCCC3=O)cc2)C1` [Example 286, (S)-2-((4-(3-methoxyazetidin-1-yl)-5-(4-(2-oxopyrrolidin-1-yl)phenyl)pyrimidin-2-yl)amino)-6,6a,7,8-tetrahydro-9H-pyrido[2,3-b]pyrrolo[1,2-d][1,4]oxazin-9-one], the IC50 on PIP4K2B and against PIP4K2A was 1 to 10 nM each time.

As for `COc1nc(Nc2cnc3c(c2)N2C(=O)CC[C@H]2CO3)ncc1-c1ccc(-c2nncn2C)cc1` [Example 287, (S)-2-((4-methoxy-5-(4-(4-methyl-4H-1,2,4-triazol-3-yl)phenyl)pyrimidin-2-yl)amino)-6,6a,7,8-tetrahydro-9H-pyrido[2,3-b]pyrrolo[1,2-d][1,4]oxazin-9-one], the IC50 on PIP4K2B and against PIP4K2A was 1 to 10 nM in each case.

`COc1nc(Nc2cnc3c(c2)N2C(=O)CC[C@H]2CO3)ncc1-c1ccc(-n2nncc2C)cc1` [Example 288, (S)-2-((4-methoxy-5-(4-(5-methyl-1H-1,2,3-triazol-1-yl)phenyl)pyrimidin-2-yl)amino)-6,6a,7,8-tetrahydro-9H-pyrido[2,3-b]pyrrolo[1,2-d][1,4]oxazin-9-one]: the IC50 on PIP4K2B is 1 to 10 nM; at PIP4K2A it was not above 1 nM.

Take `Cc1cnnn1-c1ccc(-c2ccc(Nc3cnc4c(c3)N3C(=O)CC[C@H]3CO4)nc2)cc1` [Example 289, (S)-2-((5-(4-(5-methyl-1H-1,2,3-triazol-1-yl)phenyl)pyridin-2-yl)amino)-6,6a,7,8-tetrahydro-9H-pyrido[2,3-b]pyrrolo[1,2-d][1,4]oxazin-9-one]: the IC50 at PIP4K2B and against PIP4K2A was 1 to 10 nM in each case.

In the case of `Cn1cnnc1-c1ccc(-c2ccc(Nc3cnc4c(c3)N3C(=O)CC[C@H]3CO4)nc2)cc1` [Example 291, (S)-2-((5-(4-(4-methyl-4H-1,2,4-triazol-3-yl)phenyl)pyridin-2-yl)amino)-6,6a,7,8-tetrahydro-9H-pyrido[2,3-b]pyrrolo[1,2-d][1,4]oxazin-9-one], the IC50 at PIP4K2B and on PIP4K2A was 10 to 100 nM in each case.
